Experimental data as given in ChEMBL document CHEMBL1125264, “2'-Deoxy-2'-methylenecytidine and 2'-deoxy-2',2'-difluorocytidine 5'-diphosphates: potent mechanism-based inhibitors of ribonucleotide reductase” (J Med Chem, 1991).

How the values were obtained:
[1] = target: Ribonucleoside-diphosphate reductase (Escherichia coli); assay: Compound was evaluated for time-dependent inactivation of Ribonucleotide diphosphate reductase (RDPR) in Escherichia coli
[2] = tested on: Ribonucleoside-diphosphate reductase (Escherichia coli); assay: Compound was evaluated for time-dependent inactivation of rRibonucleotide diphosphate reductase (RDPR) in Escherichia coli

Ki [1]: 830 µM
K inact [2]: 0.015 s⁻¹
Structure (SMILES): C=C1[C@H](n2ccc(=O)[nH]c2=O)O[C@H](COP(=O)(O)OP(=O)(O)O)[C@H]1O
